# Tested on: WSU-DLCL2 lymphoma cells
# Procedure: The tumor cell line was routinely cultured in DMEM containing 10% FCS (Gibco) at 37° C. in a water-saturated atmosphere at 5% CO2. Passage 15 was used for transplantation in human CD16 transgenic Scid mice. […] Expression of CD20 and CD22 was confirmed on WSU-DLCL2 lymphoma cells by FACS. […] Mean fluorescence was measured using the plate protocol in the FACS CantoII (Software FACS Diva).
# 60 SCID FcgR3 transgenic female mice (SCID CD16 tg mice), age 7-8 weeks at start of experiment (purchased from Charles River), were maintained under specific-pathogen-free condition with daily cycles of 12 h light/12 h darkness according to committed guidelines (GV-Solas; Felasa; TierschG). […] After arrival animals were maintained for one week to get accustomed to new environment and for observation. Continuous health monitoring was carried out on regular basis.
# Animals were randomized for CD16 Expression on murine NK cells with an average of 70%. Treatment started 12 days after cell transplantation. […] The CD22-ADC was given once on study day 12 at the dose of 4 mg/kg. The antibody dilutions were prepared freshly from stock before use. The study was terminated on day 273.
# Animals were controlled daily for clinical symptoms and detection of adverse effects. Termination criteria for animals were visible sickness: scruffy fur, arched back, heavy breathing, impaired locomotion, HLP (hind leg paralysis). Mice were sacrificed according to the termination criteria.
# Survival data were statistically analyzed by pairwise Wilcoxon and pairwise log-rank test.
# The diffuse large B-cell lymphoma cell line WSU-DLCL2 was intravenously inoculated (5×10^6 cells) into the tail vein of the human CD16 transgenic Scid mice. Mice were randomized for equal CD16 expression of NK cells and treatment started at day 12 after cell transplantation. […] Animals in the control group received PBS. All animals were controlled daily for clinical symptoms and detection of adverse effects and sacrificed according to the set termination criteria. Study termination was on study day 273. Survival data were represented with the survival curve (FIG. 1) and were statistically analyzed by Pairwise Wilcoxon and Pairwise Log-Rank test (FIG. 2).
substance,measurement,setting,value
GA101: afucosylated glycoengineered humanized B-Ly1 type II anti-CD20 IgG1 antibody,Survival difference between GA101 and rituximab single agents,Pairwise Wilcoxon test,no significant difference
same,Survival difference from the vehicle group,Pairwise Wilcoxon test,significantly different from the vehicle group except of GA101
same,Median Survival,"WSU-DLCL2 i.v. in SCID CD16 tg mice, GA101/rituximab 30 mg/kg i.v. days 12, 19, 26, CD22-ADC 4 mg/kg i.v. once day 12, study end day 273",86.5 days
same,Animals tumor free at the end of the study,"day 273, 10 animals per group",1 animals
same,Overall Survival at end of experiment (day 273),"surviving animals/10 per group, same dosing as the median survival study",1/10

# Reference: patent publication US20170306040A1, “COMBINATION THERAPY OF AN AFUCOSYLATED CD20 ANTIBODY WITH A CD22 ANTIBODY-DRUG CONJUGATE” (Hoffmann-La Roche Inc., priority 2013, published 2017)
